How the values were obtained:
[1] = biological target: HDAC1 enzyme (recombinant GST-HDAC1) (Homo sapiens (Human), UniProt Q13547); experiment: In vitro HDAC assay for determination of IC50 values (BIOMOL fluorescent-based HDAC activity assay); assay type: biochemical; conditions: Flur de lys substrate, 2 h room temperature, read-out: IC50 (HDAC 1)
Protocol: Biological Testing and Enzyme Assays Recombinant GST-HDAC1 Protein Expression and Purification
Human cDNA library was prepared using cultured SW620 cells. Amplification of human HDAC1 coding region from this cDNA library was cloned separately into the baculovirus expression pDEST20 vector (GATEWAY Cloning Technology, Invitrogen Pte Ltd). The pDEST20-HDAC1 construct was confirmed by DNA sequencing. Recombinant baculovirus was prepared using the Bac-To-Bac method following the manufacturer's instruction (Invitrogen Pte Ltd).
Expression of GST-HDAC1 was done by infecting SF9 cells (Invitrogen Pte Ltd) with pDEST20-HDAC1 baculovirus at MOI=1 for 48 h. Soluble cell lysate was incubated with pre-equilibrated Glutathione Sepharose 4B beads (Amersham) at 4° C. for 2 h. The beads were washed with PBS buffer for 3 times. The GST-HDAC1 protein was eluted by elution buffer containing 50 mM Tris, pH8.0, 150 mM NaCl, 1% Triton X-100 and 10 mM or 20 mM reduced Glutathione. The purified GST-HDAC1 protein was dialyzed with HDAC storage buffer containing 10 mM Tris, pH7.5, 100 mM NaCl and 3 mM MgCl2. 20% Glycerol was added to purified GST-HDAC1 protein before storage at −80° C.
In Vitro HDAC Assay for Determination of IC50 Values
The assay has been carried out in 96 well format and the BIOMOL fluorescent-based HDAC activity assay has been applied. […] Flur de lys Developer was added and the reaction was incubated for 10 min. Briefly, deacetylation of the substrate sensitizes it to the developer, which then generates a fluorophore. The fluorophore is excited with 360 nm light and the emitted light (460 nm) is detected on a fluorometric plate reader (Tecan Ultra Microplate detection system, Tecan Group Ltd.).
The analytical software, Prism 4.0 (GraphPad Software Inc) has been used to generate IC50 from a series of data.

[2] = tested on: Colo205 cells; experiment: Cell-based proliferation assay for determination of GI50 values (CyQUANT); set-up: species or system human; conditions: Homo sapiens
Protocol: Cell-Based Proliferation Assay for Determination of GI50 Values
Human cancer cell lines (e.g. Colo205) were obtained from ATCC. Colo205 cells were cultivated in RPMI 1640 containing 2 mM L-Glutamine, 5% FBS, 1.0 mM Na Pyruvate. Colo205 cells were seeded in 96-wells plate at 5000 cells per well. The plates were incubated at 37° C., 5% CO2, for 24 h. Cells were treated with compounds at various concentrations for 96 h. Cell growth was then monitored using CyQUANT® cell proliferation assay (Invitrogen Pte Ltd). Dose response curves were plotted to determine GI50 values for the compounds using XL-fit (ID Business Solution, Emeryville, Calif.). GI50 is defined as the concentration of compound required for 50% inhibition of cell growth.
The cellular or growth inhibition activity results of representative compounds are shown in Table 4 below (unit in the table is micromolar).

HDAC1 enzyme (recombinant GST-HDAC1), sequence (Q13547 whole entry): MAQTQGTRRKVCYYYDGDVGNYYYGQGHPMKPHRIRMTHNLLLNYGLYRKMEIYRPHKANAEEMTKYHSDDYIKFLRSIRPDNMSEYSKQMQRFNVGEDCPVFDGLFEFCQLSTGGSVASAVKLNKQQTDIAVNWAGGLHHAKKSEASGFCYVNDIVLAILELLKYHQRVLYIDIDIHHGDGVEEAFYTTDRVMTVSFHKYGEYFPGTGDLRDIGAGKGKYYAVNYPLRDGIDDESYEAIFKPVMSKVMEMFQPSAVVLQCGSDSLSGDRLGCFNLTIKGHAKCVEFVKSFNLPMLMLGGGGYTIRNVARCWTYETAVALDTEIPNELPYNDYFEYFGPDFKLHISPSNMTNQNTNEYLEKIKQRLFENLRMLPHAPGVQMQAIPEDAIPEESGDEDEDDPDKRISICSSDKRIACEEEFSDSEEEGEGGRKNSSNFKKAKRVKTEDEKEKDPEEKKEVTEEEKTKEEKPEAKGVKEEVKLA

Compound	IC50 [1] [nM]	GI50 ([2]; COLO 205, 96 h treatment) [nM]	GI50 ([2]; COLO 205, 96 h, 96 h treatment) [nM]
COc1cc(Nc2c(CCc3ccccc3)nc3ccc(/C=C/C(=O)NO)cn23)cc(OC)c1OC [Compound 1, N-Hydroxy-3-[2-phenethyl-3-(3,4,5-trimethoxy-phenylamino)-imidazo[1,2-a]pyridin-6-yl]-acrylamide]	150	2100	–
O=C(C=Cc1ccc2nc(CCc3ccccc3)c(NCc3ccc4c(c3)OCO4)n2c1)NO [Compound 2, 3-{3-[(Benzo[1,3]-dioxol-5-ylmethyl)-amino]-2-phenethyl-imidazo[1,2-a]pyridin-6-yl}-N-hydroxyacrylamide]	720	3900	–
O=C(/C=C/c1ccc2nc(CCc3ccccc3)c(Nc3ccc(N4CCCCC4)cc3)n2c1)NO [Compound 3, N-Hydroxy-3-[2-phenethyl-3-(4-piperidin-1-yl-phenylamino)-imidazo[1,2-a]pyridin-6-yl]-acrylamide]	790	1900	–
O=C(/C=C/c1ccc2nc(CCc3ccccc3)c(Nc3ccc4c(c3)OCO4)n2c1)NO [Compound 4, 3-[3-(Benzo[1,3]-dioxol-5-ylamino)-2-phenethyl-imidazo[1,2-a]pyridin-6-yl]-N-hydroxy-acrylamide]	640	2800	–
COCCNc1c(CCc2ccccc2)nc2ccc(/C=C/C(=O)NO)cn12 [Compound 5, N-Hydroxy-3-[3-(2-methoxy-ethylamino)-2-phenethyl-imidazo[1,2-a]pyridin-6-yl]-acrylamide]	350	27000	–
O=C(/C=C/c1ccc2nc(CCc3ccccc3)c(NC3CCCCC3)n2c1)NO [Compound 6, 3-(3-Cyclohexylamino-2-phenethyl-imidazo[1,2-a]pyridin-6-yl)-N-hydroxy-acrylamide]	1400	42000	–
COCCNc1c(C(C)C)nc2ccc(/C=C/C(=O)NO)cn12 [Compound 7, N-Hydroxy-3-[2-isopropyl-3-(2-methoxy-ethylamino)-imidazo[1,2-a]pyridin-6-yl]-acrylamide]	2700	9300	–
COCCNc1c(CC(C)(C)C)nc2ccc(/C=C/C(=O)NO)cn12 [Compound 8, 3-[2-(2,2-Dimethyl-propyl)-3-(2-methoxy-ethylamino)-imidazo[1,2-a]pyridin-6-yl]-N-hydroxy-acrylamide]	1000	14000	–
CCCCCc1nc2ccc(/C=C/C(=O)NO)cn2c1NCCOC [Compound 9, N-Hydroxy-3-[3-(2-methoxy-ethylamino)-2-pentyl-imidazo[1,2-a]pyridin-6-yl]-acrylamide]	1300	5300	–
COCCNc1c(CCC(=O)O)nc2ccc(/C=C/C(=O)NO)cn12 [Compound 10, 3-[6-(2-Hydroxycarbamoyl-vinyl)-3-(2-methoxy-ethylamino)-imidazo[1,2-a]pyridin-2-yl]-propionic acid]	–	39000	–
CCc1nc2ccc(/C=C/C(=O)NO)cn2c1NCCOC [Compound 11, 3-[2-Ethyl-3-(2-methoxy-ethylamino)-imidazo[1,2-a]pyridin-6-yl]-N-hydroxy-acrylamide]	6000	> 10000	–
CC(C)(C)Nc1c(C(=O)O)nc2ccc(/C=C/C(=O)NO)cn12 [Compound 12, 3-tert-Butylamino-6-(2-hydroxycarbamoyl-vinyl)-imidazo[1,2-a]pyridine-2-carboxylic acid]	–	20000	–
CCCCNc1c(CCCC)nc2ccc(/C=C/C(=O)NO)cn12 [Compound 13, 3-(2-Butyl-3-butylamino-imidazo[1,2-a]pyridin-6-yl)-N-hydroxy-acrylamide]	720	8900	–
CC(C)Nc1c(C(C)C)nc2ccc(/C=C/C(=O)NO)cn12 [Compound 14, N-Hydroxy-3-(2-isopropyl-3-isopropylamino-imidazo[1,2-a]pyridin-6-yl)-acrylamide]	2700	9200	–

The remaining lines, values ahead:

IC50 [1] [nM]	GI50 ([2]; COLO 205, 96 h treatment) [nM]	GI50 ([2]; COLO 205, 96 h, 96 h treatment) [nM]	Compound
760	16000	–	COCCNc1c(CC(C)CC(C)(C)C)nc2ccc(/C=C/C(=O)NO)cn12 (stereo not drawn) [Compound 15, (E)-N-hydroxy-3-(3-(2-methoxyethylamino)-2-(2,4,4-trimethylpentyl)imidazo[1,2-a]pyridin-6-yl)acrylamide]
> 10000	20000	–	COCCNc1c(CC(C)CC(C)(C)C)nc2c(/C=C/C(=O)NO)cccn12 (stereo not drawn) [Compound 16, (E)-N-hydroxy-3-(3-(2-methoxyethylamino)-2-(2,4,4-trimethylpentyl)imidazo[1,2-a]pyridin-8-yl)acrylamide]
300	9900	–	CCCCCc1nc2cc(/C=C/C(=O)NO)ccn2c1NCCOC [Compound 17, (E)-N-hydroxy-3-(3-(2-methoxyethylamino)-2-pentylimidazo[1,2-a]pyridin-7-yl)acrylamide]
–	1900	–	CCCCCCc1nc2cc(/C=C/C(=O)NO)ccn2c1NCCC(=O)N(C)CC#N [Compound 31, 3-{3-[2-(Cyanomethyl-methyl-carbamoyl)-ethylamino]-2-hexyl-imidazo[1,2-a]pyridin-7-yl}-N-hydroxy-acrylamide]
–	–	1500	CCC(CC)NCc1c(C(C)(C)C)nc2cc(C=CC(=O)NO)ccn12 [Compound 68, 3-{2-tert-Butyl-3-[(1-ethyl-propylamino)-methyl]-imidazo[1,2-a]pyridin-7-yl}-N-hydroxy-acrylamide]
–	800	–	CCCCN(CCCC)Cc1c(C)nc2cc(/C=C/C(=O)NO)ccn12 [Compound 81, 3-(3-Dibutylaminomethyl-2-methyl-imidazo[1,2-a]pyridin-7-yl)-N-hydroxy-acrylamide]
–	2200	–	CCC(C)CN(CC)Cc1c(C(C)(C)C)nc2cc(/C=C/C(=O)NO)ccn12 (stereo not drawn) [Compound 88, 3-(2-tert-Butyl-3-{[ethyl-(2-methyl-butyl)-amino]-methyl}-imidazo[1,2-a]pyridin-7-yl)-N-hydroxy-acrylamide]
–	–	2700	CCCCCCCN(CC)Cc1c(C(C)(C)C)nc2cc(/C=C/C(=O)NO)ccn12 [Compound 94, 3-{2-tert-Butyl-3-[(ethyl-heptyl-amino)-methyl]-imidazo[1,2-a]pyridin-7-yl}-N-hydroxy-acrylamide]
–	–	370	CCCCc1nc2cc(/C=C/C(=O)NO)ccn2c1CN(CC)CC(C)CCC (stereo not drawn) [Compound 113, 3-(2-Butyl-3-{[ethyl-(2-methyl-pentyl)-amino]-methyl}-imidazo[1,2-a]pyridin-7-yl)-N-hydroxy-acrylamide]
–	110	–	CCN(CCC(C)C)Cc1c(C)nc2cc(/C=C/C(=O)NO)ccn12 [Compound 124, 3-(3-{[Ethyl-(3-methyl-butyl)-amino]-methyl}-2-methyl-imidazo[1,2a]pyridin-7-yl)-N-hydroxy-acrylamide]
–	150	–	CCN(CCC(C)C)Cc1c(CC(C)C)nc2cc(/C=C/C(=O)NO)ccn12 [Compound 135, 3-(3-{[Ethyl-(3-methyl-butyl)-amino]-methyl}-2-isobutyl-imidazo[1,2-a]pyridin-7-yl)-N-hydroxy-acrylamide]
–	170	–	CCN(CCC(C)(C)C)Cc1c(CC(C)C)nc2cc(/C=C/C(=O)NO)ccn12 [Compound 136, 3-(3-{[(3,3-Dimethyl-butyl)-ethyl-amino]-methyl}-2-isobutyl-imidazo[1,2-a]pyridin-7-yl)-N-hydroxy-acrylamide]
–	130	–	CCN(CCC(C)C)Cc1c(CCC(C)C)nc2cc(/C=C/C(=O)NO)ccn12 [Compound 142, 3-[3-{[Ethyl-(3-methyl-butyl)-amino]-methyl}-2-(3-methyl-butyl)-imidazo[1,2-a]pyridin-7-yl]-N-hydroxy-acrylamide]

From US8648092B2, “Imidazo[1,2-a]pyridine derivatives: preparation and pharmaceutical applications” (MEI Pharma, priority 2005, dated 2014)
